Read-outs that look alike come from different tables or passages of the source.
Assay: PK of topical ocular sodium phosphate-based Gel Drop, concentrations 1 hour after last dose
Type: in vivo, Dutch-belted rabbits
Settings: Dutch-belted, rabbit
Description: The Gel Drop of Compound-I was applied to eyes of Dutch-belted rabbits.

With `Cl.NC(=O)c1c(OCc2c(F)cc(Br)cc2F)nsc1NC(=O)NCCCCN1CCCC1` [Compound-I, 3-[(4-bromo-2,6-difluorophenyl)methoxy]-5-[[[[4-(1-pyrrolidinyl)butyl]amino]carbonyl]amino]-4-isothiazolecarboxamide hydrochloride] the concentration at 1 h (choroid, 2 mg/ml, pH 6.1, 2 mg/ml pH 6.1 BAK 0.005% Gly 2% Osmo 229, 3x/day 5 days, read-out: MEAN [choroid]) was 462 nM, the concentration at 1 h (choroid, 2 mg/ml, pH 6.1, 2 mg/ml pH 6.1 Phos 0.05% BAK 0.005% Gly 2% PS80 1% Tylox 0.1% Osmo 239, 3x/day 5 days, read-out: MEAN [choroid]) was 660 nM and the concentration at 1 h (choroid, 2 mg/ml, pH 6.1, 2 mg/ml pH 6.1 Phos […] Osmo 22, 3x/day 5 days, read-out: MEAN [choroid]) was 356 nM. For the same compound, the concentration at 1 h (choroid, 2 mg/ml, pH 6.1, 2 mg/ml pH 6.1 Phos […] Osmo 34, 3x/day 4 days, read-out: MEAN [choroid]) was 466 nM, the concentration at 1 h (choroid, 4 mg/ml, pH 6, 4 mg/ml pH 6.0 Phos 0.2% BAK 0.005% Gly 2%, 3x/day 5 days, read-out: MEAN [choroid]) was 596 nM and the concentration at 1 h (choroid, 5 mg/ml, pH 6, 5 mg/ml pH 6 Phos 0.2% BAK 0.005% Gly 2% Osmo 273, 3x/day 5 days, read-out: MEAN [choroid]) was 1160 nM. It also gave a concentration at 1 h (choroid, 5 mg/ml, pH 6, 5 mg/ml pH 6 Phos 0.2% BAK 0.005% Gly 2% PS80 1% Polox 0.2% Osmo 288, 3x/day 5 days, read-out: MEAN [choroid]) of 612 nM, a concentration at 1 h (choroid, 6 mg/ml, pH 5.9, 6 mg/ml pH 5.9 Phos 0.05% BAK 0.005% Gly 2% PS80 1% Tylox 0.1% Polox 0.2% Osmo 270, 3x/day 4 days, read-out: MEAN [choroid]) of 22.4 nM and a concentration at 1 h (choroid, 6 mg/ml, pH 5.9, 6 mg/ml pH 5.9 Phos […] Osmo 80, 3x/day 4 days, read-out: MEAN [choroid]) of 823 nM. The concentration at 1 h (choroid, 6 mg/ml, pH 6.1, 6 mg/ml pH 6.1 Phos 0.05% BAK 0.005% Gly 2% PS80 1% Tylox 0.1% Osmo 248, 3x/day 5 days, read-out: MEAN [choroid]) was 779 nM, the concentration at 1 h (plasma, 1 mg/ml, pH 6, 1 mg/ml pH 6.0 Phos 0.05% BAK 0.005% Gly 2% PS80 0.01% Tylox 0.2%, 3x/day 5 days, read-out: [plasma]) was 3.49 nM and the concentration at 1 h (plasma, 1 mg/ml, pH 6, 1 mg/ml pH 6 Phos 0.05% BAK 0.005% Gly 2%, 3x/day 5 days, read-out: [plasma]) was 4.45 nM. For the same compound, the concentration at 1 h (plasma, 1 mg/ml, pH 6, 1 mg/ml pH 6.0 Phos 0.2% BAK 0.005% Gly 2% PS80 1% Tylox 0.2%, 3x/day 5 days, read-out: [plasma]) was 2.89 nM, the concentration at 1 h (plasma, 1 mg/ml, pH 6, 1 mg/ml pH 6.0 Phos 0.2% BAK 0.005% Gly 2%, 3x/day 5 days, read-out: [plasma]) was 3.97 nM and the concentration at 1 h (plasma, 2 mg/ml, pH 6, 2 mg/ml pH 6 BAK 0.005% Gly 2% Osmo 232, 3x/day 5 days, read-out: [plasma]) was 5.41 nM. It also gave a concentration at 1 h (plasma, 2 mg/ml, pH 6, 2 mg/ml pH 6.0 Phos 0.02% BAK 0.005% Gly 2% PS80 1% Tylox 0.2%, 3x/day 5 days, read-out: [plasma]) of 4.46 nM, a concentration at 1 h (plasma, 2 mg/ml, pH 6, 2 mg/ml pH 6 Phos 0.05% BAK 0.005% Gly 2% Osmo 244, 3x/day 5 days, read-out: [plasma]) of 5.92 nM and a concentration at 1 h (plasma, 2 mg/ml, pH 6, 2 mg/ml pH 6 Phos 0.05% BAK 0.005% Gly 2% PS80 1% Osmo 261, 3x/day 5 days, read-out: [plasma]) of 4.15 nM. The concentration at 1 h (plasma, 2 mg/ml, pH 6, 2 mg/ml pH 6.0 Phos 0.05% BAK 0.005% Gly 2% PS80 1% Tylox 0.2%, 3x/day 5 days, read-out: [plasma]) was 4.36 nM, the concentration at 1 h (plasma, 2 mg/ml, pH 6, 2 mg/ml pH 6.0 Phos 0.05% BAK 0.005% Gly 2%, 3x/day 5 days, read-out: [plasma]) was 5.79 nM and the concentration at 1 h (plasma, 2 mg/ml, pH 6, 2 mg/ml pH 6.0 Phos 0.1% BAK 0.005% Gly 2%, 3x/day 5 days, read-out: [plasma]) was 5.71 nM. The concentration at 1 h (plasma, 2 mg/ml, pH 6, 2 mg/ml pH 6 Phos 0.2% BAK 0.005% Gly 2% Osmo 257, 3x/day 5 days, read-out: [plasma]) was 5.26 nM, the concentration at 1 h (plasma, 2 mg/ml, pH 6, 2 mg/ml pH 6 Phos 0.2% BAK 0.005% Gly 2% PS80 1% Osmo 281, 3x/day 5 days, read-out: [plasma]) was 4.94 nM and the concentration at 1 h (plasma, 2 mg/ml, pH 6, 2 mg/ml pH 6.0 Phos 0.2% BAK 0.005% Gly 2%, 3x/day 5 days, read-out: [plasma]) was 4.47 nM. The concentration at 1 h (plasma, 2 mg/ml, pH 6.1, 2 mg/ml pH 6.1 Phos […] Osmo 34, 3x/day 4 days, read-out: [plasma]) was 4.81 nM, the concentration at 1 h (plasma, 4 mg/ml, pH 6, 4 mg/ml pH 6.0 Phos 0.2% BAK 0.005% Gly 2%, 3x/day 5 days, read-out: [plasma]) was 5.84 nM and the concentration at 1 h (plasma, 4 mg/ml, pH 6, 4 mg/ml pH 6.0 Phos 2% BAK 0.005% Gly 2% PS80 1% Tylox 0.2%, 3x/day 5 days, read-out: [plasma]) was 8.06 nM. It also gave a concentration at 1 h (plasma, 6 mg/ml, pH 5.9, 6 mg/ml pH 5.9 Phos 0.05% BAK 0.005% Gly 2% PS80 1% Tylox 0.1% Polox 0.2% Osmo 270, 3x/day 4 days, read-out: [plasma]) of 15.6 nM, a concentration at 1 h (plasma, 6 mg/ml, pH 5.9, 6 mg/ml pH 5.9 Phos 0.1% BAK 0.005% Gly 2% Polox 0.2% Osmo 257, 3x/day 4 days, read-out: [plasma]) of 8.43 nM and a concentration at 1 h (retina, 1 mg/ml, pH 6, 1 mg/ml pH 6.0 Phos 0.05% BAK 0.005% Gly 2% PS80 0.01% Tylox 0.2%, 3x/day 5 days, read-out: Mean [retina]) of 46.8 nM. For the same compound, the concentration at 1 h (retina, 1 mg/ml, pH 6, 1 mg/ml pH 6.0 Phos 0.2% BAK 0.005% Gly 2% PS80 1% Tylox 0.2%, 3x/day 5 days, read-out: Mean [retina]) was 32.7 nM, the concentration at 1 h (retina, 1 mg/ml, pH 6, 1 mg/ml pH 6.0 Phos 0.2% BAK 0.005% Gly 2%, 3x/day 5 days, read-out: Mean [retina]) was 90.8 nM and the concentration at 1 h (retina, 2 mg/ml, pH 6, 2 mg/ml pH 6.0 Phos 0.02% BAK 0.005% Gly 2% PS80 1% Tylox 0.2%, 3x/day 5 days, read-out: Mean [retina]) was 92.9 nM. It also gave a concentration at 1 h (retina, 2 mg/ml, pH 6, 2 mg/ml pH 6 Phos 0.05% BAK 0.005% Gly 2% Osmo 244, 3x/day 5 days, read-out: Mean [retina]) of 121 nM, a concentration at 1 h (retina, 2 mg/ml, pH 6, 2 mg/ml pH 6 Phos 0.05% BAK 0.005% Gly 2% PS80 1% Osmo 261, 3x/day 5 days, read-out: Mean [retina]) of 126 nM and a concentration at 1 h (retina, 2 mg/ml, pH 6, 2 mg/ml pH 6.0 Phos 0.05% BAK 0.005% Gly 2% PS80 1% Tylox 0.2%, 3x/day 5 days, read-out: Mean [retina]) of 85.7 nM. For the same compound, the concentration at 1 h (retina, 2 mg/ml, pH 6, 2 mg/ml pH 6.0 Phos 0.05% BAK 0.005% Gly 2%, 3x/day 5 days, read-out: Mean [retina]) was 113 nM, the concentration at 1 h (retina, 2 mg/ml, pH 6, 2 mg/ml pH 6.0 Phos 0.1% BAK 0.005% Gly 2%, 3x/day 5 days, read-out: Mean [retina]) was 42.9 nM and the concentration at 1 h (retina, 2 mg/ml, pH 6, 2 mg/ml pH 6.0 Phos 0.2% BAK 0.005% Gly 2%, 3x/day 5 days, read-out: Mean [retina]) was 34.8 nM. The concentration at 1 h (retina, 4 mg/ml, pH 6, 4 mg/ml pH 6.0 Phos 0.2% BAK 0.005% Gly 2%, 3x/day 5 days, read-out: Mean [retina]) was 68.3 nM and the concentration at 1 h (retina, 4 mg/ml, pH 6, 4 mg/ml pH 6.0 Phos 2% BAK 0.005% Gly 2% PS80 1% Tylox 0.2%, 3x/day 5 days, read-out: Mean [retina]) was 97.6 nM.

Reference: US10307404B1, “Ocular formulations for drug-delivery to the posterior segment of the eye” (priority 2013, dated 2019)
